Where two headings read alike, the source gives them in different places.
Legend:
[1] = Lipid nanoparticle size, PDI and encapsulation; type: physicochemical; settings: Table 3
[2] = Lipid nanoparticle size, PDI and encapsulation; type: physicochemical; settings: Table 3; for Size (nm): lipid nanoparticle; for EE %: lipid nanoparticle encapsulation
Description: In the context of nucleic acids, full encapsulation may be determined by performing a membrane-impermeable fluorescent dye exclusion assay, which uses a dye that has enhanced fluorescence when associated with nucleic acid. Encapsulation is determined by adding the dye to a lipid formulation, measuring the resulting fluorescence, and comparing it to the fluorescence observed upon addition of a small amount of nonionic detergent. Detergent-mediated disruption of the lipid layer releases the encapsulated nucleic acid, allowing it to interact with the membrane-impermeable dye. Nucleic acid encapsulation may be calculated as E=(I0−I)/I0, where I and I0 refer to the fluorescence intensities before and after the addition of detergent.

[3] = In vivo biodegradability assay (lipid in liver); settings: for In vivo degradability (ng/tissue) at 48h 0.03 mpk / In vivo degradability (ng/tissue) at 48h 0.1 mpk: mouse liver
hEPO = hEPO mRNA expression evaluation (hEPO-LNPs); type: in vivo, Balb/c mice; settings: for EPO exprssn (ng/mL) 0.03 mpk: 0.03 mpk i.v.; for EPO exprssn (ng/mL) 0.03 mpk / EPO exprssn (ng/mL) 0.1 mpk: serum hEPO after 6 hr; for EPO exprssn (ng/mL) 0.1 mpk: 0.1 mpk i.v.
[4] = Measured pKa in the indicated formulation; settings: for pKa: EPO / pKa: FVII: Table 2; for pKa: EPO: measured in EPO formulation; for pKa: FVII: measured in FVII formulation
Description: Measured pKa values were determined based on the pH measured in the indicated formulation (i.e., EPO or FVII formulation).

factor VII = assay: Factor VII knock down evaluation (LNP with FVII siRNA); type: in vivo, Balb/C mice; settings: for FVII KD % 0.01 mpk: 0.01 mpk i.v.; for FVII KD % 0.01 mpk / FVII KD % 0.03 mpk: plasma FVII after 48 h vs saline control; for FVII KD % 0.03 mpk: 0.03 mpk i.v.
In short: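 Female Balb/C mice, 7–8 weeks old, received FVII siRNA lipid nanoparticles intravenously at 0.03 or 0.01 mg/kg. Plasma was collected 48 h later and FVII protein measured by chromogenic assay at 405 nm against a control plasma calibration curve. Levels are relative to saline-treated controls.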

Mouse plasma stability = type: in vitro ADME, CD-1 mouse; settings: 1 uM lipid
In short: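 Lipid at 1 μM starting concentration incubated in stirred CD-1 mouse plasma (sodium heparin) at 37° C.; samples at 0–120 min quenched with acetonitrile/methanol plus internal standard. LC-MS peak area relative to T=0 gave % remaining; T1/2 from first-order decay.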

PDI [1] | Size (nm) [2] | EE % [2] | Percent remaining in mouse plasma after 2 h (Mouse plasma stability; Table 1, mouse plasma 37 C) | Percent remaining in mouse plasma after 2 h (Mouse plasma stability; Table 2, mouse plasma 37 C) | In vivo degradability (ng/tissue) at 48h 0.03 mpk ([3]; Table 1) | In vivo degradability (ng/tissue) at 48h 0.1 mpk ([3]; Table 1) | In vivo degradability (ng/tissue) at 48h 0.03 mpk ([3]; Table 2) | In vivo degradability (ng/tissue) at 48h 0.1 mpk ([3]; Table 2) | pKa ([4]; EPO formulation) | pKa ([4]; FVII formulation) | pKa: EPO [4] | pKa: FVII [4] | Structure (SMILES) | FVII KD % 0.01 mpk (factor VII; Table 1) | FVII KD % 0.03 mpk (factor VII; Table 1) | FVII KD % 0.01 mpk (factor VII; Table 2) | FVII KD % 0.03 mpk (factor VII; Table 2) | EPO exprssn (ng/mL) 0.1 mpk (hEPO; Table 2) | other results
0.068 | 74.77 nm | 92.1% | – | – | – | – | – | – | – | – | – | – | CN(C)CCCC(=O)OC(CCCCCC(=O)OC(COC(=O)CCC1CCCCC1)COC(=O)CCC1CCCCC1)CCCCCC(=O)OC(COC(=O)CCC1CCCCC1)COC(=O)CCC1CCCCC1 [Lipid 59, bis(1,3-bis((3-cyclohexylpropanoyl)oxy)propan-2-yl) 7-((4-(dimethylamino)butanoyl)oxy)tridecanedioate] | – | – | – | – | – | Invivo lipid degradability ng/g of Liver tissue @ 0.3 mg/kg dose ([3]; Table 3, liver tissue, 0.3 mg/kg dose): BLOQ; EPO expression in ng/mL @ 0.3 mg/kg (hEPO; Table 3, 0.3 mg/kg): 14723.72 ng/mL; pKa [4]: 6.37
– | – | – | 14% | 14% | BLOQ | BLOQ | BLOQ | BLOQ | 6.4 | 6.64 | 6.4 | 6.64 | CCCCCCCCC(=O)OCC(COC(=O)CCCCCCCC)OC(=O)CCCN(CCCC(=O)OC(COC(=O)CCCCCCCC)COC(=O)CCCCCCCC)C(=O)SCCCN(C)C [LIPID 1, ((4,4′-((((3-(Dimethylamino)propyl)thio)carbonyl)azanediyl)bis(butanoyl))bis(oxy))bis(propane-2,1,3-triyl)tetranonanoate] | 84% | 100% | 84% | 100% | 1413 ng/mL | EPO exprssn (ng/mL) 0.03 mpk (hEPO; Table 1): 432 ng/mL; EPO exprssn (ng/mL) 0.1 mpk (hEPO; Table 1): 1413 ng/mL; EPO exprssn (ng/mL) 0.03 mpk (hEPO; Table 2): 432 ng/mL
0.086 | 100.4 nm | 88.2% | – | – | – | – | – | – | – | – | – | – | CN(C)CCCSC(=O)N(CCCC(=O)OC(COC(=O)CCc1ccc(-c2ccccc2)cc1)COC(=O)CCc1ccc(-c2ccccc2)cc1)CCCC(=O)OC(COC(=O)CCc1ccc(-c2ccccc2)cc1)COC(=O)CCc1ccc(-c2ccccc2)cc1 [Lipid 42, ((4,4′-((((3-(dimethylamino)propyl)thio)carbonyl)azanediyl)bis(butanoyl))bis(oxy))bis(propane-2,1,3-triyl)tetrakis(3-([1,1′-biphenyl]-4-yl)propanoate)] | – | – | – | – | – | –
0.065 | 103.2 nm | 96.2% | – | – | – | – | – | – | – | – | – | – | CC1CCC(CCC(=O)OCC(C)(COC(=O)CCC2CCC(C)CC2)COC(=O)CCN(CCC(=O)OCC(C)(COC(=O)CCC2CCC(C)CC2)COC(=O)CCC2CCC(C)CC2)C(=O)N(C)CCCN(C)C)CC1 (stereo not drawn) [Lipid 48, (((3,3′-((((3-dimethylamino)propyl)methylcarbamoyl)azanediyl)bis(propanoyl))bis(oxy))bis(methylene))bis(2-methylpropane-2,1,3-triyl)tetrakis(3-(4-methylcyclohexyl)propanoate)] | – | – | – | – | – | pKa [4]: 7.18
– | – | – | 57% | 57% | BLOQ | BLOQ | BLOQ | BLOQ | 6.46 | 6.61 | 6.46 | 6.61 | CN(C)CCCSC(=O)N(CCCCCC(=O)OC(COC(=O)CCC1CCCCC1)COC(=O)CCC1CCCCC1)CCCCCC(=O)OC(COC(=O)CCC1CCCCC1)COC(=O)CCC1CCCCC1 [LIPID 12, ((6,6′-((((3-(Dimethylamino)propyl)thio)carbonyl)azanediyl)bis(hexanoyl))bis(oxy))bis(propane-2,1,3-triyl)tetrakis(3-cyclohexylpropanoate)] | 91% | 69% | 91% | 69% | 768 ng/mL | EPO exprssn (ng/mL) 0.03 mpk (hEPO; Table 1): 286 ng/mL; EPO exprssn (ng/mL) 0.1 mpk (hEPO; Table 1): 768 ng/mL; EPO exprssn (ng/mL) 0.03 mpk (hEPO; Table 2): 286 ng/mL
– | – | – | 116% | 100% | <340 ng/tissue | <340 ng/tissue | <340 ng/tissue | <340 ng/tissue | 7.19 | 6.86 | 7.19 | 6.86 | CCCCCCCCC(=O)OCC(COC(=O)CCCCCCCC)COC(=O)CCN(CCC(=O)OCC(COC(=O)CCCCCCCC)COC(=O)CCCCCCCC)C(=O)SCCCN(C)C [LIPID 14] | 65% | 90% | 65% | 90% | 1152 ng/mL | –
0.089 | 98.26 nm | 98.9% | – | – | – | – | – | – | – | – | – | – | CC1CCC(CCC(=O)OCC(C)(COC(=O)CCC2CCC(C)CC2)COC(=O)CCN(CCC(=O)OCC(C)(COC(=O)CCC2CCC(C)CC2)COC(=O)CCC2CCC(C)CC2)C(=O)NCCCN(C)C)CC1 (stereo not drawn) [Lipid 47, (((3,3′-((((3-dimethylamino)propyl)carbamoyl)azanediyl)bis(propanoyl))bis(oxy))bis(methylene))bis(2-methylpropane-2,1,3-triyl)tetrakis(3-(4-methylcyclohexyl)propanoate)] | – | – | – | – | – | –
0.028 | 97.23 nm | 98.9% | – | – | – | – | – | – | – | – | – | – | CC1CCC(CCC(=O)OCC(C)(COC(=O)CCC2CCC(C)CC2)COC(=O)CCN(CCC(=O)OCC(C)(COC(=O)CCC2CCC(C)CC2)COC(=O)CCC2CCC(C)CC2)C(=O)CCCCN(C)C)CC1 (stereo not drawn) [Lipid 49, (((3,3′-((5-(dimethylamino)pentanoyl)azanediyl)bis (propanoyl))bis(oxy))bis(methylene))bis(2-methylpropane-2,1,3-triyl)tetrakis(3-(4-methylcyclohexyl)propanoate)] | – | – | – | – | – | FVII KD % @ 0.03 mg/kg (factor VII; Table 3, 0.03 mg/kg): 3.57%; pKa [4]: 7.5
– | – | – | 74% | 74% | <340 ng/tissue | <340 ng/tissue | <340 ng/tissue | <340 ng/tissue | 6.4 | 6.61 | 6.40 | 6.61 | CCCCCCCCC(=O)OCC(COC(=O)CCCCCCCC)OC(=O)CCN(CCC(=O)OC(COC(=O)CCCCCCCC)COC(=O)CCCCCCCC)C(=O)SCCCN(C)C [LIPID 13] | 60% | 87% | 60% | 87% | 1488.1 ng/mL | –
– | – | – | 40% | 40% | BLOQ | BLOQ | BLOQ | BLOQ | 6.37 | 6.54 | 6.37 | 6.54 | CCCCCCCCC(=O)OCC(COC(=O)CCCCCCCC)OC(=O)CCC(CCC(=O)OC(COC(=O)CCCCCCCC)COC(=O)CCCCCCCC)OC(=O)CCCN(C)C [LIPID 5, bis(1,3-bis(Nonanoyloxy)propan-2-yl) 4-((4-(dimethylamino)butanoyl)oxy)heptanedioate] | 90% | 62% | 90% | 62% | 533 ng/mL | EPO exprssn (ng/mL) 0.03 mpk (hEPO; Table 1): 87 ng/mL; EPO exprssn (ng/mL) 0.1 mpk (hEPO; Table 1): 533 ng/mL; EPO exprssn (ng/mL) 0.03 mpk (hEPO; Table 2): 87 ng/mL
0.134 | 113.1 nm | 85.7% | – | – | – | – | – | – | – | – | – | – | CN(C)CCCSC(=O)N(CCCC(=O)OC(COC(=O)CCc1ccc2ccccc2c1)COC(=O)CCc1ccc2ccccc2c1)CCCC(=O)OC(COC(=O)CCc1ccc2ccccc2c1)COC(=O)CCc1ccc2ccccc2c1 [Lipid 44, ((4,4′-((((3-(dimethylamino)propyl)thio)carbonyl)azanediyl)bis(butanoyl))bis(oxy))bis(propane-2,1,3-triyl)tetrakis(3-(naphthalen-2-yl)propanoate)] | – | – | – | – | – | –

Reference: patent US20240391870A1 (Arcturus Therapeutics, Inc., priority 2023, published 2024)
